From US11708318B2, “Polymorphic forms of RAD1901-2HCL” (Radius Pharmaceuticals, Inc., priority 2017, dated 2023)
Entries after “also recorded” stand apart in the source; their conditions may differ. Like-named read-outs stand apart in the source and are kept apart here.

Assays:
[1] = Solubility assessment of Sample 1 (majorly Form 1) in 24 solvent systems; format: physicochemical; details: for solubility: thermodynamic from solid
Description: Solubility assessment was carried out on the Sample 1 of RAD1901-2HCl (majorly Form 1 shown by XRPD) in 24 solvent systems in HPLC vials (sample IDs: A1 to A24). RAD1901-2HCl (25 mg) was treated with increasing volumes of solvent until the material fully dissolved or until a maximum of 60 vol had been used (Table 13).
After each addition of solvent, the system was stirred for 5 to 10 minutes at 25° C., then shaken at 50° C. for 5 to 10 minutes, and observations made. Samples were allowed to stand at room temperature for 5 min before the addition of a new aliquot of solvent. After the assessment was completed, the suspensions obtained were matured (maturation) and the clear solutions were cooled (cooling) and slowly evaporated (evaporation) as described below. All solids recovered from maturation, cooling and evaporation experiments were analyzed by high resolution XRPD.

[2] = Storage at elevated temperature/humidity, analysed by XRPD; format: physicochemical
Description: Samples 1 and 2 were characterized by XRPD at various conditions. XRPD patterns were collected for the samples at ambient condition as the samples were provided; at variable temperature (VT-XRPD); at variable humidity (VH-XRPD); after the samples were exposed to 40° C./75% RH for 1 week and 25° C./97% RH for 1 week, respectively; and after a GVS measurement wherein the samples were exposed to 0-90% RH. Samples 1 and 2 were also characterized by ^1H NMR, TGA, DSC, KF, IC, GVS (exposed to 0-90% RH), PLM, SEM, and HPLC (Table 5).

CCNCCc1ccc(CN(CC)c2cc(OC)ccc2[C@@H]2CCc3cc(O)ccc3C2)cc1.Cl.Cl [Sample 1]
solubility ([1]; acetonitrile, 50 °C, organic solvent or mixture, Acetonitrile, sample ID A19, read-out: Solubility assessment 40 vol.): < 25 mg/mL | solubility ([1]; acetonitrile, 50 °C, organic solvent or mixture, Acetonitrile, sample ID A19, read-out: Solubility assessment 60 vol.): < 16.7 mg/mL | solubility ([1]; dichloromethane, 50 °C, organic solvent or mixture, Dichloromethane, sample ID A18, read-out: Solubility assessment 10 vol.): < 100 mg/mL | solubility ([1]; dichloromethane, 50 °C, organic solvent or mixture, Dichloromethane, sample ID A18, read-out: Solubility assessment 20 vol.): < 50 mg/mL | solubility ([1]; dichloromethane, 50 °C, organic solvent or mixture, Dichloromethane, sample ID A18, read-out: Solubility assessment 40 vol.): < 25 mg/mL | solubility ([1]; dichloromethane, organic solvent or mixture, Dichloromethane, sample ID A18, read-out: Solubility assessment 60 vol.): < 16.7 mg/mL | solubility ([1]; dimethyl sulfoxide, 50 °C, organic solvent or mixture, Dimethyl sulfoxide, sample ID A11, read-out: Solubility assessment 10 vol.): > 100 mg/mL | solubility ([1]; ethanol, 50 °C, organic solvent or mixture, Ethanol, sample ID A10, read-out: Solubility assessment 10 vol.): < 100 mg/mL | solubility ([1]; ethanol, 50 °C, organic solvent or mixture, Ethanol, sample ID A10, read-out: Solubility assessment 20 vol.): < 50 mg/mL | solubility ([1]; ethanol, 50 °C, organic solvent or mixture, Ethanol, sample ID A10, read-out: Solubility assessment 40 vol.): < 25 mg/mL | solubility ([1]; ethanol, organic solvent or mixture, Ethanol, sample ID A10, read-out: Solubility assessment 60 vol.): < 16.7 mg/mL | solubility ([1]; ethyl acetate, 50 °C, organic solvent or mixture, Ethyl acetate, sample ID A3, read-out: Solubility assessment 10 vol.): < 100 mg/mL | solubility ([1]; ethyl acetate, 50 °C, organic solvent or mixture, Ethyl acetate, sample ID A3, read-out: Solubility assessment 20 vol.): < 50 mg/mL | solubility ([1]; ethyl acetate, 50 °C, organic solvent or mixture, Ethyl acetate, sample ID A3, read-out: Solubility assessment 40 vol.): < 25 mg/mL | solubility ([1]; ethyl acetate, organic solvent or mixture, Ethyl acetate, sample ID A3, read-out: Solubility assessment 60 vol.): < 16.7 mg/mL | solubility ([1]; isopropyl acetate, 50 °C, organic solvent or mixture, Isopropyl acetate, sample ID A4, read-out: Solubility assessment 10 vol.): < 100 mg/mL | solubility ([1]; isopropyl acetate, 50 °C, organic solvent or mixture, Isopropyl acetate, sample ID A4, read-out: Solubility assessment 20 vol.): < 50 mg/mL | solubility ([1]; isopropyl acetate, 50 °C, organic solvent or mixture, Isopropyl acetate, sample ID A4, read-out: Solubility assessment 40 vol.): < 25 mg/mL | solubility ([1]; isopropyl acetate, organic solvent or mixture, Isopropyl acetate, sample ID A4, read-out: Solubility assessment 60 vol.): < 16.7 mg/mL | solubility ([1]; methanol, 50 °C, organic solvent or mixture, Methanol, sample ID A20, read-out: Solubility assessment 10 vol.): 50 to 100 mg/mL | solubility ([1]; methanol, 50 °C, organic solvent or mixture, Methanol, sample ID A20, read-out: Solubility assessment 20 vol.): 50 to 100 mg/mL | solubility ([1]; n-heptane, 50 °C, organic solvent or mixture, n-Heptane, sample ID A1, read-out: Solubility assessment 10 vol.): < 100 mg/mL | solubility ([1]; n-heptane, 50 °C, organic solvent or mixture, n-Heptane, sample ID A1, read-out: Solubility assessment 20 vol.): < 50 mg/mL | solubility ([1]; n-heptane, 50 °C, organic solvent or mixture, n-Heptane, sample ID A1, read-out: Solubility assessment 40 vol.): < 25 mg/mL | solubility ([1]; n-heptane, organic solvent or mixture, n-Heptane, sample ID A1, read-out: Solubility assessment 60 vol.): < 16.7 mg/mL | solubility ([1]; nitromethane, 50 °C, organic solvent or mixture, Nitromethane, sample ID A21, read-out: Solubility assessment 10 vol.): < 100 mg/mL | solubility ([1]; nitromethane, 50 °C, organic solvent or mixture, Nitromethane, sample ID A21, read-out: Solubility assessment 20 vol.): < 50 mg/mL | solubility ([1]; nitromethane, 50 °C, organic solvent or mixture, Nitromethane, sample ID A21, read-out: Solubility assessment 40 vol.): < 25 mg/mL | solubility ([1]; nitromethane, organic solvent or mixture, Nitromethane, sample ID A21, read-out: Solubility assessment 60 vol.): < 16.7 mg/mL | solubility ([1]; propyl acetate, 50 °C, organic solvent or mixture, Propyl acetate, sample ID A2, read-out: Solubility assessment 10 vol.): < 100 mg/mL | solubility ([1]; propyl acetate, 50 °C, organic solvent or mixture, Propyl acetate, sample ID A2, read-out: Solubility assessment 20 vol.): < 50 mg/mL | solubility ([1]; propyl acetate, 50 °C, organic solvent or mixture, Propyl acetate, sample ID A2, read-out: Solubility assessment 40 vol.): < 25 mg/mL | solubility ([1]; propyl acetate, organic solvent or mixture, Propyl acetate, sample ID A2, read-out: Solubility assessment 60 vol.): < 16.7 mg/mL | solubility ([1]; tetrahydrofuran, 50 °C, organic solvent or mixture, Tetrahydrofuran, sample ID A17, read-out: Solubility assessment 10 vol.): < 100 mg/mL | solubility ([1]; tetrahydrofuran, 50 °C, organic solvent or mixture, Tetrahydrofuran, sample ID A17, read-out: Solubility assessment 20 vol.): < 50 mg/mL | solubility ([1]; tetrahydrofuran, 50 °C, organic solvent or mixture, Tetrahydrofuran, sample ID A17, read-out: Solubility assessment 40 vol.): < 25 mg/mL | solubility ([1]; tetrahydrofuran, organic solvent or mixture, Tetrahydrofuran, sample ID A17, read-out: Solubility assessment 60 vol.): < 16.7 mg/mL | solubility ([1]; toluene, 50 °C, organic solvent or mixture, Toluene, sample ID A15, read-out: Solubility assessment 10 vol.): < 100 mg/mL | solubility ([1]; toluene, 50 °C, organic solvent or mixture, Toluene, sample ID A15, read-out: Solubility assessment 20 vol.): < 50 mg/mL | solubility ([1]; toluene, 50 °C, organic solvent or mixture, Toluene, sample ID A15, read-out: Solubility assessment 40 vol.): < 25 mg/mL | solubility ([1]; toluene, organic solvent or mixture, Toluene, sample ID A15, read-out: Solubility assessment 60 vol.): < 16.7 mg/mL | Solubility in water ([1]; water): highly soluble; also recorded: high solubility | solubility ([1]; water, 50 °C, water, Water, sample ID A12, read-out: Solubility assessment 10 vol.): 50 to 100 mg/mL | solubility ([1]; water, 50 °C, water, Water, sample ID A12, read-out: Solubility assessment 20 vol.): 50 to 100 mg/mL | XRPD after storage at 25° C./97% RH for 1 week ([2]; 25° C./97% RH, 1 week): Form 3 | Solid form on prolonged exposure to high RH (>90%) ([2]; high RH (>90%), e.g. for 7 days): converted to the hydrate Form 3
